Laboratory results from ChEMBL document CHEMBL4828765, “Design and Development of a Chemical Probe for Pseudokinase Ca2+/calmodulin-Dependent Ser/Thr Kinase” (J Med Chem, 2021).
Activity calls are given as the source filed them. No cut-off for these calls is given here.

How the values were obtained:
[1] = target: Tyrosine-protein kinase receptor UFO (Homo sapiens) (UniProt P30530); assay: Binding affinity to human AXL at 1 uM by KINOMEscan scanMAX assay relative to control
[2] = target: Hepatocyte growth factor receptor (Homo sapiens) (UniProt P08581); assay: Binding affinity to human MET at 1 uM by KINOMEscan scanMAX assay relative to control
Sequence of Hepatocyte growth factor receptor (Homo sapiens) (P08581 whole entry): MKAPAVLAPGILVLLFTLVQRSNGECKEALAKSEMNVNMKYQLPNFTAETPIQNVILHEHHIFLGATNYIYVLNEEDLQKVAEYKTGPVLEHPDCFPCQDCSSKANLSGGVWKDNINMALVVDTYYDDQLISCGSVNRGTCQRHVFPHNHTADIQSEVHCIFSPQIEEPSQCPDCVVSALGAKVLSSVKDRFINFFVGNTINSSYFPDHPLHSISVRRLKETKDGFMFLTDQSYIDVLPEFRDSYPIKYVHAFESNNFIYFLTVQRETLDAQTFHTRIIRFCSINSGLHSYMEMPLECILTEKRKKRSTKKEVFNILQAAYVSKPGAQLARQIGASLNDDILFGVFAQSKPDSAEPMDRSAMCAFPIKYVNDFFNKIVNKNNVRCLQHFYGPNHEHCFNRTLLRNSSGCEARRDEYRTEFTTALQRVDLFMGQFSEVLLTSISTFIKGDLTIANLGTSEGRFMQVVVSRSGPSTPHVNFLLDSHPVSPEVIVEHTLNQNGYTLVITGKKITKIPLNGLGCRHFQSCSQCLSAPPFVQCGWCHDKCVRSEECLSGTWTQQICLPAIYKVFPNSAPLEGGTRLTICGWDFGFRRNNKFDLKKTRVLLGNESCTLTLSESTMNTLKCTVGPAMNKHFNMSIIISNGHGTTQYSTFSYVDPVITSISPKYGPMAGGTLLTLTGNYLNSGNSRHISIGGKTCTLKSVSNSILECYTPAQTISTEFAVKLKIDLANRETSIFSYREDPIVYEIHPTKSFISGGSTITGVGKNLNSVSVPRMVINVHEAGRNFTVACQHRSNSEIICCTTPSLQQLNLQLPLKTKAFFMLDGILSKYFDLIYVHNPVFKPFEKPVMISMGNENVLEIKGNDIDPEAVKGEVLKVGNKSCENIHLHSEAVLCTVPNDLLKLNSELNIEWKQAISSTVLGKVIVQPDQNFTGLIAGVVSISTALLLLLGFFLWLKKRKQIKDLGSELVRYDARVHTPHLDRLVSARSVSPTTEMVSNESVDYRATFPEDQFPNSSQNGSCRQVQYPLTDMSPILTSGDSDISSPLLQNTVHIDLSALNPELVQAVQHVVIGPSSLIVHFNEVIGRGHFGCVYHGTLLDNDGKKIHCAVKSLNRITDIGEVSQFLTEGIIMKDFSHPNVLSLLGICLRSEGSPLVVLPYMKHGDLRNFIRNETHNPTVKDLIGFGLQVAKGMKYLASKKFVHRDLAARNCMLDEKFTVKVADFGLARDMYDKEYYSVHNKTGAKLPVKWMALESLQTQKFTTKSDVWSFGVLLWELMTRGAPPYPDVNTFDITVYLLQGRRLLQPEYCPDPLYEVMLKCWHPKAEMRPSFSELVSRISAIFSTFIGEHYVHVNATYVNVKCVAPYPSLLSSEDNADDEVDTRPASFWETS

[3] = target: T1, Mitogen-activated protein kinase kinase kinase 2 (Homo sapiens) (UniProt Q9Y2U5); assay: Binding affinity to human MAP3K2 at 1 uM by KINOMEscan scanMAX assay relative to control
T1 sequence (whole entry): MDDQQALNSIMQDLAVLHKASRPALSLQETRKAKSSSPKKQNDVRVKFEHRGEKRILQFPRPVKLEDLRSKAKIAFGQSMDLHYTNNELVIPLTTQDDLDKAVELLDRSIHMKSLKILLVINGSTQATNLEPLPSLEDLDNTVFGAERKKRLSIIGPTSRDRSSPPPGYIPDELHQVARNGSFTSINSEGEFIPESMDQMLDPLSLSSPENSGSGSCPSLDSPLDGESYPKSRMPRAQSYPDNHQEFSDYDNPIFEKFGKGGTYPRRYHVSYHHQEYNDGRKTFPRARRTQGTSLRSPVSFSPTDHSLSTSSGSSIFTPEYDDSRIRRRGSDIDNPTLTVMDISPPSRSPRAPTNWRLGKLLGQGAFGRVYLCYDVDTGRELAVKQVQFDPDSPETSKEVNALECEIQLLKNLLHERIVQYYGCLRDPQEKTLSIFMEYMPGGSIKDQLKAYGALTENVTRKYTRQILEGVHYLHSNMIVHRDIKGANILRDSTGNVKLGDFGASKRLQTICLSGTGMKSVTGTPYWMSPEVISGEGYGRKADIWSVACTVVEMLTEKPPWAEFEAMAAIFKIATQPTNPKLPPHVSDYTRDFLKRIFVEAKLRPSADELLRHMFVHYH

[4] = target: T2, Tyrosine-protein kinase ABL1 (Homo sapiens, UniProt P00519); assay: Binding affinity to human non-phosphorylated ABL1 at 1 uM by KINOMEscan scanMAX assay relative to control
T2 sequence (P00519 whole entry, the tested form may be a part): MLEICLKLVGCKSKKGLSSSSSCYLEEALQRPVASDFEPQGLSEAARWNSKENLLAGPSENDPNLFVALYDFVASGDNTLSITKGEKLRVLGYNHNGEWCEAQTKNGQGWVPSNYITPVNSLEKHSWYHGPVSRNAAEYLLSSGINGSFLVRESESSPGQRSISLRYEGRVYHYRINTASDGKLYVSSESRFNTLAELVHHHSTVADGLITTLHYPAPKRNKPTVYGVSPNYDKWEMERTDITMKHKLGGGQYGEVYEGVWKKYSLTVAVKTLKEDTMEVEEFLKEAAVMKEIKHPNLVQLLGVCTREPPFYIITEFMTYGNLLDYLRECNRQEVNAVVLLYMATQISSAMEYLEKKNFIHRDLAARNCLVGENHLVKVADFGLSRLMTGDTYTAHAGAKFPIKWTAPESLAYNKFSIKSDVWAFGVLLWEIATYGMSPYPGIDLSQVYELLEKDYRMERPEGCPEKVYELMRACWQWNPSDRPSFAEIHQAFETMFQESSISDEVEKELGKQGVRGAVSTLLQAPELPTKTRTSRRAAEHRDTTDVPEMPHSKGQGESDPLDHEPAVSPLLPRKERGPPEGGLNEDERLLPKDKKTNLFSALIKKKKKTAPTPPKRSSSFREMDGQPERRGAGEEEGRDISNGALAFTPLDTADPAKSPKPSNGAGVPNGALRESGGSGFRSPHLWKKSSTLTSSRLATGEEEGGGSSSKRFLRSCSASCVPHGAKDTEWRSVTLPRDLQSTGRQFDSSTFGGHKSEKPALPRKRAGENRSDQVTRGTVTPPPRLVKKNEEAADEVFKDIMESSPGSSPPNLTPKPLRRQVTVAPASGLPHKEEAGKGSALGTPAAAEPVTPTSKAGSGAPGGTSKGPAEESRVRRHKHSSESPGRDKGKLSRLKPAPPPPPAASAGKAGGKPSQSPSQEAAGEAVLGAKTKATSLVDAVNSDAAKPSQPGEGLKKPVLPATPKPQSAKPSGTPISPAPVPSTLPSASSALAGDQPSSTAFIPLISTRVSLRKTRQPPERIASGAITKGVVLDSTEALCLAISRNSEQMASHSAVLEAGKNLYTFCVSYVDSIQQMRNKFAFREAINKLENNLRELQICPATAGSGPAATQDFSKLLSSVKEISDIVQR

[5] = target: T2, Tyrosine-protein kinase ABL1; assay: Inhibition of tracer K5 binding to NanoLuc-fused ABL1 (unknown origin) expressed in HEK293T cells measured after 2 hrs by NanoBRET assay; format: cell-based
[6] = target: T3, Casein kinase I isoform epsilon (Homo sapiens, UniProt P49674); assay: Binding affinity to human CSNK1E by KINOMEscan scanMAX assay
Target sequence in this assay (P49674 whole entry, the tested form may be a part, canonical isoform): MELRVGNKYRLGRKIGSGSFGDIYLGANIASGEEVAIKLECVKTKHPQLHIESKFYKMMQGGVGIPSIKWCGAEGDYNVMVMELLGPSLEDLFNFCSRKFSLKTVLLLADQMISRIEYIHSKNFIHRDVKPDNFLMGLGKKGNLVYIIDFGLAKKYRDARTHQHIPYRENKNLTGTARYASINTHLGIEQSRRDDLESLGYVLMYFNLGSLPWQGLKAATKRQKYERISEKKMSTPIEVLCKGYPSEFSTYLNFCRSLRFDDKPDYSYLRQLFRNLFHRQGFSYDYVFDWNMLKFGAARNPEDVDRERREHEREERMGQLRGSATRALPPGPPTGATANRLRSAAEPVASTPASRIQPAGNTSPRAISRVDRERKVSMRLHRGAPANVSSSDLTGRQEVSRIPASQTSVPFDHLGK

[7] = target: T4, Ribosomal protein S6 kinase alpha-2 (Homo sapiens, UniProt Q15349); assay: Binding affinity to human N-terminal RSK3 kinase domain 1 by KINOMEscan scanMAX assay
T4 sequence (Q15349 whole entry, the tested form may be a part): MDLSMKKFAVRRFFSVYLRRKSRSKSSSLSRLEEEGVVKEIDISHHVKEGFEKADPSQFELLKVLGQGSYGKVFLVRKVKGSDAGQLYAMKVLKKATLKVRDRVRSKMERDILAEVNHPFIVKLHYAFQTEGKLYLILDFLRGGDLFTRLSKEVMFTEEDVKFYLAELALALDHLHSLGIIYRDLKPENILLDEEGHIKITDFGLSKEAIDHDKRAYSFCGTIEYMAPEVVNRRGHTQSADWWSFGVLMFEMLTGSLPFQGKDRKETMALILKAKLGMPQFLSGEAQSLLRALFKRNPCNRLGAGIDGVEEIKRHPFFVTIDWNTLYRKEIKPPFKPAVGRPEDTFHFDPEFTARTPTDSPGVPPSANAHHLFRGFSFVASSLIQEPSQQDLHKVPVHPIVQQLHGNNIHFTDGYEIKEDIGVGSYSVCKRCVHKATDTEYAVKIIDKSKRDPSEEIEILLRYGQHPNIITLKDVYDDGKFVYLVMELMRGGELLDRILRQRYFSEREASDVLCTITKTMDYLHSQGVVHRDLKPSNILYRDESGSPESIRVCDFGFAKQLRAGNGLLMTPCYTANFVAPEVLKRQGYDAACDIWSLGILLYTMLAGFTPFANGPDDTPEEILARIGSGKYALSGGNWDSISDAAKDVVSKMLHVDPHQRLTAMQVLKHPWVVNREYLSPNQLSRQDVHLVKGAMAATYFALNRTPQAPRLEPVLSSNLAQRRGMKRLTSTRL

[8] = target: Tyrosine-protein kinase receptor UFO (Homo sapiens) (UniProt P30530); assay: Binding affinity to AXL (unknown origin) assessed as change in melting temperature by SYPRO orange dye based DSF assay
[9] = target: T3, Casein kinase I isoform epsilon; assay: Binding affinity to human CSNK1E at 1 uM by KINOMEscan scanMAX assay relative to control
Target sequence in this assay (P49674 whole entry, looked up, the tested form may be a part, canonical isoform): as the sequence (P49674 whole entry, the tested form may be a part, canonical isoform) above

[10] = target: T3, Casein kinase I isoform epsilon; assay: Binding affinity to CSNK1E (unknown origin) assessed as change in melting temperature by SYPRO orange dye based DSF assay
Target sequence in this assay (P49674 whole entry, looked up, the tested form may be a part, canonical isoform): as the sequence (P49674 whole entry, the tested form may be a part, canonical isoform) above

[11] = target: T5, Mitogen-activated protein kinase kinase kinase 2 (Homo sapiens, UniProt Q9Y2U5); assay: Binding affinity to human MAP3K2 by KINOMEscan scanMAX assay
T5 sequence (Q9Y2U5 whole entry): T1 sequence (whole entry)

[12] = target: T2, Tyrosine-protein kinase ABL1
Description: Binding affinity to non-phosphorylated ABL1 (unknown origin) assessed as change in melting temperature by SYPRO orange dye based DSF assay

Homo sapiens = species on record: Homo sapiens; assay: Binding affinity to MERTK-AXL mutant (unknown origin) expressed in Escherichia coli Rosetta cells assessed as change in melting temperature by SYPRO orange dye based DSF assay
[13] = target: T6, Tyrosine-protein kinase Mer (Homo sapiens) (UniProt Q12866); assay: Binding affinity to MERTK (571 to 864 residue) (unknown origin) expressed in Escherichia coli Rosetta cells assessed as change in melting temperature by SYPRO orange dye based DSF assay
T6 sequence (whole entry): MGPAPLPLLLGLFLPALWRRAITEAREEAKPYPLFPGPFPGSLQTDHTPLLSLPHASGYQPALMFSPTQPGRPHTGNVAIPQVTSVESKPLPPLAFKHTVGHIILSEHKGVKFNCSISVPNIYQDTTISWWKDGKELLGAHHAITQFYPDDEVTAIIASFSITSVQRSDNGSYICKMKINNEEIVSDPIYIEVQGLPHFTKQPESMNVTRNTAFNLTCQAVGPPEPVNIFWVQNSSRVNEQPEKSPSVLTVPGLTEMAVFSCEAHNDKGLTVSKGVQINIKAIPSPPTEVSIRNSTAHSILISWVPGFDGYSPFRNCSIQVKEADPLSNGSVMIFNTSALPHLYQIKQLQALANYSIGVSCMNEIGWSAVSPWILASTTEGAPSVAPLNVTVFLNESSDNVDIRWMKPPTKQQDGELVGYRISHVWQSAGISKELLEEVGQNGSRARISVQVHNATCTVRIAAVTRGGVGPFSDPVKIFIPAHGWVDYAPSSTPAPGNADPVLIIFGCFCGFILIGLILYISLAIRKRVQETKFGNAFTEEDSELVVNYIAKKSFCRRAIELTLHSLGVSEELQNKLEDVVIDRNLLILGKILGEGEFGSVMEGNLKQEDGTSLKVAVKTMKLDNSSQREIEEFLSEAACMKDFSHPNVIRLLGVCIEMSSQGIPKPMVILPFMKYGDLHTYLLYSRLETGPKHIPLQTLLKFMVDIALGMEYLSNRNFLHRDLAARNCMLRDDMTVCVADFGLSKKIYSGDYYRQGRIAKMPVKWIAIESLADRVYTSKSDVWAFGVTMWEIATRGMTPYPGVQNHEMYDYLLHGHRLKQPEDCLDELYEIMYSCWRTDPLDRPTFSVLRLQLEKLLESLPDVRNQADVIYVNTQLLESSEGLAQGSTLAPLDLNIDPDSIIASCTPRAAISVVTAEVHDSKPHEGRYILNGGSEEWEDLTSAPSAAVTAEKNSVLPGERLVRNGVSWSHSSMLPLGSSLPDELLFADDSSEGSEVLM

[14] = target: T6, Tyrosine-protein kinase Mer (Homo sapiens); assay: Binding affinity to human MERTK at 1 uM by KINOMEscan scanMAX assay relative to control
[15] = target: T7, Tyrosine-protein kinase Mer (Homo sapiens, UniProt Q12866); assay: Inhibition of tracer K5 binding to NanoLuc-fused MERTK (unknown origin) expressed in HEK293T cells measured after 2 hrs by NanoBRET assay; format: cell-based
T7 sequence (Q12866 whole entry): T6 sequence (whole entry)

[16] = target: T7, Tyrosine-protein kinase Mer; assay: Binding affinity to human MERTK by KINOMEscan scanMAX assay
[17] = target: T4, Ribosomal protein S6 kinase alpha-2; assay: Binding affinity to human N-terminal RSK3 kinase domain 1 at 1 uM by KINOMEscan scanMAX assay relative to control
[18] = target: T2, Tyrosine-protein kinase ABL1; assay: Binding affinity to human non-phosphorylated ABL1 by KINOMEscan scanMAX assay
[19] = target: T8, Tyrosine-protein kinase receptor TYRO3 (Homo sapiens, UniProt Q06418); assay: Inhibition of tracer K5 binding to NanoLuc-fused TYRO3 (unknown origin) expressed in HEK293T cells measured after 2 hrs by NanoBRET assay; format: cell-based
T8 sequence (Q06418 whole entry): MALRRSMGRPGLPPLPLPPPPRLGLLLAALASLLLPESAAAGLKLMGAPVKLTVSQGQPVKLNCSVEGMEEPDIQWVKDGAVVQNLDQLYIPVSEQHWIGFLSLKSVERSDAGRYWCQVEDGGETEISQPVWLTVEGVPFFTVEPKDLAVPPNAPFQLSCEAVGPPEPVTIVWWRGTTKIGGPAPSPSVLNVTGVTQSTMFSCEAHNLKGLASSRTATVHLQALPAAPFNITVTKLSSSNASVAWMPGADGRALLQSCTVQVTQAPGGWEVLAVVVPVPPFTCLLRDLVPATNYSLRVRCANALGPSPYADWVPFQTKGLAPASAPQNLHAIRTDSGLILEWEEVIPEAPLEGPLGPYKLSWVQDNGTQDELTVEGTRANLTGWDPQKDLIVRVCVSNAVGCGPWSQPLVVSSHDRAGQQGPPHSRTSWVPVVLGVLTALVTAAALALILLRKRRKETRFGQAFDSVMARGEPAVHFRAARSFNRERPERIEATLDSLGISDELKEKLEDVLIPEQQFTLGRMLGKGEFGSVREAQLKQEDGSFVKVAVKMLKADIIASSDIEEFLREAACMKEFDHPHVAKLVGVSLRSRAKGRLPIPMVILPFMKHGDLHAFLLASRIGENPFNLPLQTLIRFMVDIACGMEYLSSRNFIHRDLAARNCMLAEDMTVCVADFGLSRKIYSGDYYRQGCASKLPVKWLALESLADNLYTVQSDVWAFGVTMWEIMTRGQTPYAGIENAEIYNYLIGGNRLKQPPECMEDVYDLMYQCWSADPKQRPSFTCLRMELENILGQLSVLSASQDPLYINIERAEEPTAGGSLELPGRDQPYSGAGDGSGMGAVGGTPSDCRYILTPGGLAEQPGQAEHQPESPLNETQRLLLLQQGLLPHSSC

[20] = target: T9, Tyrosine-protein kinase receptor UFO (Homo sapiens, UniProt P30530); assay: Inhibition of tracer K5 binding to NanoLuc-fused AXL (unknown origin) expressed in HEK293T cells measured after 2 hrs by NanoBRET assay; format: cell-based
T9 sequence (P30530 whole entry): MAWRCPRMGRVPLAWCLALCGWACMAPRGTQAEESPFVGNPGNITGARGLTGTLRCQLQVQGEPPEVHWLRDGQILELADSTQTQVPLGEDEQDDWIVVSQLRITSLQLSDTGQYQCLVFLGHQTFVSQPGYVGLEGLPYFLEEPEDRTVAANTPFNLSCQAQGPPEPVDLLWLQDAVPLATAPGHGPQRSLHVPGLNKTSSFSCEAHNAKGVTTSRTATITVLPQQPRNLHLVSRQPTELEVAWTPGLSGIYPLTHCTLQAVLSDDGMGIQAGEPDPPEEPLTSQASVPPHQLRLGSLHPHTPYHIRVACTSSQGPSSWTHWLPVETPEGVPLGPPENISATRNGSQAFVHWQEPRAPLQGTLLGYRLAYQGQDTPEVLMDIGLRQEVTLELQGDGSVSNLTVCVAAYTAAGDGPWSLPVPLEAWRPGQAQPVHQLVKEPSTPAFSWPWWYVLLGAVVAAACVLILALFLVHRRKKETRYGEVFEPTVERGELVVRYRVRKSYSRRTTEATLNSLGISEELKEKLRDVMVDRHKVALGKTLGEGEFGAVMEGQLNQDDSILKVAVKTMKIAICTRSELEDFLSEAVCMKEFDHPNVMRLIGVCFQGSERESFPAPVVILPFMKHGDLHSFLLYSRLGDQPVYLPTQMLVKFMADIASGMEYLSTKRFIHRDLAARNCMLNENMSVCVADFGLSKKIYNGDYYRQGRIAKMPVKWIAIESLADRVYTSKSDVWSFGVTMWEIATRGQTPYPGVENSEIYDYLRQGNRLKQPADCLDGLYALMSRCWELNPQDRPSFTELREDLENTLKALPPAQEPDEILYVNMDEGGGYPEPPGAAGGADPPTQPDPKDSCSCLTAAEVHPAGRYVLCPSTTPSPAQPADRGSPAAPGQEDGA

[21] = target: T3, Casein kinase I isoform epsilon; assay: Inhibition of tracer K5 binding to NanoLuc-fused CSNK1E (unknown origin) expressed in HEK293T cells measured after 2 hrs by NanoBRET assay; format: cell-based
Target sequence in this assay (P49674 whole entry, the tested form may be a part, canonical isoform): as the sequence (P49674 whole entry, the tested form may be a part, canonical isoform) above

P19 [22] = assay: Induction of cell death in mouse P19 cell differentiation model at 1 uM preincubated for 4 days followed by cytosine arabinoside addition measured after 6 hrs by immunostaining based microscopic analysis; format: functional; conditions: time 102.0 hrs
P19 [23] = assay: Induction of beta3-tubulin abundance in mouse P19 cells at 1 uM preincubated for 4 days followed by cytosine arabinoside addition measured after 6 hrs by immunostaining based microscopic analysis; format: functional, cell-based; conditions: time 4.0 day
P19 [24] = assay: Induction of cell death in mouse P19 cell differentiation model at 2 uM preincubated for 4 days followed by cytosine arabinoside addition measured after 6 hrs by immunostaining based microscopic analysis; format: functional; conditions: time 102.0 hrs

SMILES | IC50 [5] | deltaTm [10] | deltaTm [12] | deltaTm (Homo sapiens) | deltaTm [13] | IC50 [15] | IC50 [19] | IC50 [20] | also measured
O=C(NCCCN1CCOC1=O)c1cnc(NCc2cc(Cl)ccc2Cl)nc1NC1CCCC1 | > 10000 nM | 5.6 K | 8.6 K | 0.2 K | -0.2 K | > 10000 nM | 700 nM |  | Activity [1]: 61%; Activity [2]: 63%; Activity [3]: 63%; Activity [4]: 73%; Kd [6]: 770 nM; Kd [7]: 1300 nM; deltaTm [8]: 0.2 K; Activity [9]: 76%; Kd [11]: 690 nM; Activity [14]: 75%; Kd [16]: 570 nM; Activity [17]: 67%; Kd [18]: 740 nM; Ki [19]: 120 nM
Cc1cc(Br)c(CNc2ncc(C(=O)NCCCN3CCOC3=O)c(NC3CCCCC3)n2)cc1Br | > 10000 nM | 3.8 K | 8.4 K | 0.1 K | -0.5 K | > 10000 nM | 8730 nM | > 10000 nM | IC50 [21]: 22100 nM
CCN(Cc1ccc(Cl)cc1)c1ncc(C(=O)NCCCN2CCCC2=O)c(NC2CCCC2)n1 | > 10000 nM |  |  |  |  | > 10000 nM | > 10000 nM | > 10000 nM | Activity (P19 [22]): inactive; Activity (P19 [23]): inactive; Activity (P19 [24]): inactive
